Kd data for nine molecules are collected here from ChEMBL document CHEMBL3991601, “The target landscape of clinical kinase drugs” (Science, 2017).

Experiment [1] concerns the target T1, Membrane-associated tyrosine- and threonine-specific cdc2-inhibitory kinase (Homo sapiens, UniProt Q99640).
T1 sequence (Q99640 whole entry): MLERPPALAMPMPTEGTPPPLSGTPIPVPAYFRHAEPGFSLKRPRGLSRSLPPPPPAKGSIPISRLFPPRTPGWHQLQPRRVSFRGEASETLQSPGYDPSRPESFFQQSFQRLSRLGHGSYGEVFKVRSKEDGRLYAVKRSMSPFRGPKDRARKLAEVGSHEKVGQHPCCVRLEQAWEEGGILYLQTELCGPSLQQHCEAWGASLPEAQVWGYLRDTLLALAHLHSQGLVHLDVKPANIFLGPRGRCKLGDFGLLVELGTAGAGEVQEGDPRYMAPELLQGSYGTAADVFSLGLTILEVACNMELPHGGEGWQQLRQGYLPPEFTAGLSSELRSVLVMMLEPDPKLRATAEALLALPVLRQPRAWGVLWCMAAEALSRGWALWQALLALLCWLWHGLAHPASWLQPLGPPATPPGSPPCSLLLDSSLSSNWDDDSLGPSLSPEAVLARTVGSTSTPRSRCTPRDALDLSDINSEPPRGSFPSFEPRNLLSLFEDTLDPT

The target in experiment [2] is Serine/threonine-protein kinase/endoribonuclease IRE2 (Homo sapiens, UniProt Q76MJ5).
In experiment [3] the target is Bone morphogenetic protein receptor type-1B (Homo sapiens, UniProt O00238).
For experiment [4], the target named is T2, EKC/KEOPS complex subunit TP53RK (Homo sapiens, UniProt Q96S44).
T2 sequence (Q96S44 whole entry): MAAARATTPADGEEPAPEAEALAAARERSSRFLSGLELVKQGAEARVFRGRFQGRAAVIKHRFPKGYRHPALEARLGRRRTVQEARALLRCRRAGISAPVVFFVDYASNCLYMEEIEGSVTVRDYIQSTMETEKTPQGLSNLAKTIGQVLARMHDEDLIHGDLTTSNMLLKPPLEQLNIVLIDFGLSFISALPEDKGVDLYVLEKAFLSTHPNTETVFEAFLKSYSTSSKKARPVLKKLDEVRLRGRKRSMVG

For experiment [5], the target named is Chromodomain-helicase-DNA-binding protein 4 (Homo sapiens, UniProt Q14839).
The target of experiment [6] is RAC-alpha serine/threonine-protein kinase (Homo sapiens, UniProt P31749).
Experiment [7] has as its target Rho-associated protein kinase 2 (Homo sapiens, UniProt O75116).
Experiment [8] concerns the target ATP-dependent RNA helicase DDX3X (Homo sapiens, UniProt O00571).
For experiment [9], the target named is T3, Glycogen phosphorylase, brain form (Homo sapiens, UniProt P11216).
T3 sequence (P11216 whole entry): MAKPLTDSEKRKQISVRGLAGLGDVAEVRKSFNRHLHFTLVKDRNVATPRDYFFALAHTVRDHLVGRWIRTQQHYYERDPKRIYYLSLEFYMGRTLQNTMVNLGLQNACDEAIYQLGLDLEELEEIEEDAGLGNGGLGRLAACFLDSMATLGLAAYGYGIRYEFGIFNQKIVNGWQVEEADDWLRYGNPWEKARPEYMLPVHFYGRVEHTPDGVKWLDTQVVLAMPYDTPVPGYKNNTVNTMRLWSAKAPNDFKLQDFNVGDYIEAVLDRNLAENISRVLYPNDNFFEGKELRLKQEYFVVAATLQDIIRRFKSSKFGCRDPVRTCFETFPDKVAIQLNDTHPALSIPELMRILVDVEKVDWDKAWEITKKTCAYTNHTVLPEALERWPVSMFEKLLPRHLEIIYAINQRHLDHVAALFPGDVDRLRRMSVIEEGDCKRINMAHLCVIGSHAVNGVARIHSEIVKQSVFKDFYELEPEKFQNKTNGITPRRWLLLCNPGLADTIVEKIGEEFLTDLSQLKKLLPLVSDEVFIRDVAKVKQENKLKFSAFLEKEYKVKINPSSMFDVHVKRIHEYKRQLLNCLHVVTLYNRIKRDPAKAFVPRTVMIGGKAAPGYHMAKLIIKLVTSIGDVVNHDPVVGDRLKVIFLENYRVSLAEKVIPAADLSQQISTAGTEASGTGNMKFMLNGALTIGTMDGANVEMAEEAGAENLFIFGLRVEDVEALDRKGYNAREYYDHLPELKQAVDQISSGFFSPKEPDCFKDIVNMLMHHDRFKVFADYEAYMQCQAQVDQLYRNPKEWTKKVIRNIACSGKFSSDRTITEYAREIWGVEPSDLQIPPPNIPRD

Experiment [10] deals with Casein kinase I isoform gamma-1 (Homo sapiens, UniProt Q9HCP0).
In experiment [11] the target is Mitogen-activated protein kinase kinase kinase kinase 1 (Homo sapiens, UniProt Q92918).
Experiment [12] has as its target DNA topoisomerase 2-beta (Homo sapiens, UniProt Q02880).
Experiment [13] concerns the target T4, Mitogen-activated protein kinase kinase kinase 2 (Homo sapiens, UniProt Q9Y2U5).
T4 sequence (Q9Y2U5 whole entry): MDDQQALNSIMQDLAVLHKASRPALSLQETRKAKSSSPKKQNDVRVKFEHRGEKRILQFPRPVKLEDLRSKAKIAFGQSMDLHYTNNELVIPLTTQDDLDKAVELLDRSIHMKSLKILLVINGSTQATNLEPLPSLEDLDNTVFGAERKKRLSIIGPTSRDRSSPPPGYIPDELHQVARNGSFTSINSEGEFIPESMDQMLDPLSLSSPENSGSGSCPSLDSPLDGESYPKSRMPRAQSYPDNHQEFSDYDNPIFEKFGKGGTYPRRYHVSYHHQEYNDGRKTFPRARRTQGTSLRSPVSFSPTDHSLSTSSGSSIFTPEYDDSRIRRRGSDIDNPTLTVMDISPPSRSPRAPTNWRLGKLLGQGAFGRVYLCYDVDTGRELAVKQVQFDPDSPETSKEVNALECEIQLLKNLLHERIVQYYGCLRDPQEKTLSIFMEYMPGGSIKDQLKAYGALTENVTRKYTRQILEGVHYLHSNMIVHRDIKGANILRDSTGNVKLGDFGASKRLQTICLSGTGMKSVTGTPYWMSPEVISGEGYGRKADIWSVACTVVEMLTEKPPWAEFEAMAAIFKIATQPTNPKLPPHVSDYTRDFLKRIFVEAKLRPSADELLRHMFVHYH

For experiment [14], the target named is Tyrosine-protein kinase ABL2 (Homo sapiens, UniProt P42684).
Sequence of Tyrosine-protein kinase ABL2 (P42684 whole entry): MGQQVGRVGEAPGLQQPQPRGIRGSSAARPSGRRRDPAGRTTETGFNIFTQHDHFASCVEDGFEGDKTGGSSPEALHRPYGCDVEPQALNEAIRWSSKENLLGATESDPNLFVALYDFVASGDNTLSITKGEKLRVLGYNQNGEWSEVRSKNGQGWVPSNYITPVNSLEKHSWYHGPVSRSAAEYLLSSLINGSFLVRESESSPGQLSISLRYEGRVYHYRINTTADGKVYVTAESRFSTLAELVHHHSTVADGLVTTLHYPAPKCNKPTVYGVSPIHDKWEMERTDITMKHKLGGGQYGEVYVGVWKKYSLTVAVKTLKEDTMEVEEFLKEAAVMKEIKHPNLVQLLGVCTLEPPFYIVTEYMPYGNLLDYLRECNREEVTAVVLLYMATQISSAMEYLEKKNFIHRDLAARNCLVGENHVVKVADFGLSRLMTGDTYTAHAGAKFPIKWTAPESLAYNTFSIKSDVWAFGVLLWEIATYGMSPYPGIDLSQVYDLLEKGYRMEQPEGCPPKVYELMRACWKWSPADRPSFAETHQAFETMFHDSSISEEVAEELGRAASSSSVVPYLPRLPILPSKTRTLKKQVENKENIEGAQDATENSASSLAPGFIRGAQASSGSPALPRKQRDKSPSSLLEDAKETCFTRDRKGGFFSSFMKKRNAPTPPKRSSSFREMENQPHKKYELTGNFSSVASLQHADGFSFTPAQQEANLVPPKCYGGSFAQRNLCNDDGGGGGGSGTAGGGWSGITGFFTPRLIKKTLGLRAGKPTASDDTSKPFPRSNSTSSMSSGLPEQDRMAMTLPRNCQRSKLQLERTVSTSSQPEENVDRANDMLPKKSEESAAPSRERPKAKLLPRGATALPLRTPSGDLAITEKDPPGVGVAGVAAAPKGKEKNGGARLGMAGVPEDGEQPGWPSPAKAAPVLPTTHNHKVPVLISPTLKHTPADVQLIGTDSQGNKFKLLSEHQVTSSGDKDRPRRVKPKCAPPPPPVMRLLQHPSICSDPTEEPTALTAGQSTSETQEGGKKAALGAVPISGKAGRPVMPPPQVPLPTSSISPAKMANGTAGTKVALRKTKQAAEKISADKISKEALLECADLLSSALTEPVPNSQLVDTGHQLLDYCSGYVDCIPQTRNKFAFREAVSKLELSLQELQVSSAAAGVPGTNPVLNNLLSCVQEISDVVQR

Active and inactive are the calls of the source.
Further: in the data inactive means no Kd found up to 30 µM.

Sequence of DNA topoisomerase 2-beta (Q02880 whole entry): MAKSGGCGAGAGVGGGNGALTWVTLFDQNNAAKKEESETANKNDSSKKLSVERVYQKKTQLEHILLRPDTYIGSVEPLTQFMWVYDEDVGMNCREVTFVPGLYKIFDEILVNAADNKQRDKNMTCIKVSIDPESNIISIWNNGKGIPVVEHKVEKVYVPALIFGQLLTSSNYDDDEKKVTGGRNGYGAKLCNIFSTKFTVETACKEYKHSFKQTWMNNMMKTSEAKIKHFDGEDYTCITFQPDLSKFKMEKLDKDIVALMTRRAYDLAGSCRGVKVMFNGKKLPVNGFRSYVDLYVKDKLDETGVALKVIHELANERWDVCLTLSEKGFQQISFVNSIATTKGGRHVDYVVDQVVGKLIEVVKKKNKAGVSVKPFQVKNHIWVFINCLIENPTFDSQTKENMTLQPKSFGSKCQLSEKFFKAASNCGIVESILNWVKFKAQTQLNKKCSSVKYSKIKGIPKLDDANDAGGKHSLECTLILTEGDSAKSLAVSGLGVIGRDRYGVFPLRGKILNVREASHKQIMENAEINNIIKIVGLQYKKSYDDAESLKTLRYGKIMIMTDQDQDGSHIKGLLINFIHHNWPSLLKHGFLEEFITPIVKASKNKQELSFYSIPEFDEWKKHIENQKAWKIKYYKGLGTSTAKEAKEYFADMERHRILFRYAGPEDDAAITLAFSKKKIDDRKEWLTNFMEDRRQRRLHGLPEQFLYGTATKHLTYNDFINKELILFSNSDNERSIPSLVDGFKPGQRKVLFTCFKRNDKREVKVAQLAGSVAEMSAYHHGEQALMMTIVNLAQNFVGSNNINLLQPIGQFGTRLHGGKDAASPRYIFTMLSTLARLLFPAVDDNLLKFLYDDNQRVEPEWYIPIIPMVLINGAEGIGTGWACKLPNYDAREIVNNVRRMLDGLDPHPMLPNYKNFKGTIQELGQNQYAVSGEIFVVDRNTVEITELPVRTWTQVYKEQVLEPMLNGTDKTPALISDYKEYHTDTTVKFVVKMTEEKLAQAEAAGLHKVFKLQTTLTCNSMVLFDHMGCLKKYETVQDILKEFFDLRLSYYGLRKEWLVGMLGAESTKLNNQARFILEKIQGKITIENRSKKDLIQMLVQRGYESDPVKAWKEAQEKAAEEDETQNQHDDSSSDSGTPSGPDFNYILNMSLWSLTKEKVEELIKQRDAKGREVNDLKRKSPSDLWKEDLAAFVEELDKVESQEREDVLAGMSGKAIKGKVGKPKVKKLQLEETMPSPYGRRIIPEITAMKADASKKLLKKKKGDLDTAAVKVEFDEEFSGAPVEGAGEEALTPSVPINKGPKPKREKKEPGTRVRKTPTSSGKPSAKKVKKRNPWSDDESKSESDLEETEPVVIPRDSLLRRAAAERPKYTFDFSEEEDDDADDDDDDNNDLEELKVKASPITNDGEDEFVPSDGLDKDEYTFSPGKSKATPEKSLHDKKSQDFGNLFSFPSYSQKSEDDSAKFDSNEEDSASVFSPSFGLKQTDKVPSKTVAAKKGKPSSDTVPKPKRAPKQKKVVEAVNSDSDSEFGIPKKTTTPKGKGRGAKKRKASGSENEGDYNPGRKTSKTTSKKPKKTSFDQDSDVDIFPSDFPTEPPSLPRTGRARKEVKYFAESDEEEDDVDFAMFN
Sequence of ATP-dependent RNA helicase DDX3X (O00571 whole entry): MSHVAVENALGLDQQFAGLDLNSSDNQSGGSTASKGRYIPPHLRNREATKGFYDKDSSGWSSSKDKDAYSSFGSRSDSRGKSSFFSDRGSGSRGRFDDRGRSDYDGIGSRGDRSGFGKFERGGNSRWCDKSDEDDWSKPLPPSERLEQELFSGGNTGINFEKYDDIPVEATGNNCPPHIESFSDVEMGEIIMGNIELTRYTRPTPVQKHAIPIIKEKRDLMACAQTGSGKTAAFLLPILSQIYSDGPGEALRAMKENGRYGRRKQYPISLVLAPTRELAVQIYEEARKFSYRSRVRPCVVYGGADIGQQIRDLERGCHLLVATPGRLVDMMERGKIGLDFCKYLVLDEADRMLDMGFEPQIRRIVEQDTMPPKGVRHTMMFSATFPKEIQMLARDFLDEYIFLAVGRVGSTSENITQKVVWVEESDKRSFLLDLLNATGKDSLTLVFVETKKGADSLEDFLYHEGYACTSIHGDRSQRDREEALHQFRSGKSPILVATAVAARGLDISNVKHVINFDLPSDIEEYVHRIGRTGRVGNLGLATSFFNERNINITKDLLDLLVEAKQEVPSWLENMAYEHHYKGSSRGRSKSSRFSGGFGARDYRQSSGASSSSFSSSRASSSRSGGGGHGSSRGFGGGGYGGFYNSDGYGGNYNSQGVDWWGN
Sequence of Rho-associated protein kinase 2 (O75116 whole entry): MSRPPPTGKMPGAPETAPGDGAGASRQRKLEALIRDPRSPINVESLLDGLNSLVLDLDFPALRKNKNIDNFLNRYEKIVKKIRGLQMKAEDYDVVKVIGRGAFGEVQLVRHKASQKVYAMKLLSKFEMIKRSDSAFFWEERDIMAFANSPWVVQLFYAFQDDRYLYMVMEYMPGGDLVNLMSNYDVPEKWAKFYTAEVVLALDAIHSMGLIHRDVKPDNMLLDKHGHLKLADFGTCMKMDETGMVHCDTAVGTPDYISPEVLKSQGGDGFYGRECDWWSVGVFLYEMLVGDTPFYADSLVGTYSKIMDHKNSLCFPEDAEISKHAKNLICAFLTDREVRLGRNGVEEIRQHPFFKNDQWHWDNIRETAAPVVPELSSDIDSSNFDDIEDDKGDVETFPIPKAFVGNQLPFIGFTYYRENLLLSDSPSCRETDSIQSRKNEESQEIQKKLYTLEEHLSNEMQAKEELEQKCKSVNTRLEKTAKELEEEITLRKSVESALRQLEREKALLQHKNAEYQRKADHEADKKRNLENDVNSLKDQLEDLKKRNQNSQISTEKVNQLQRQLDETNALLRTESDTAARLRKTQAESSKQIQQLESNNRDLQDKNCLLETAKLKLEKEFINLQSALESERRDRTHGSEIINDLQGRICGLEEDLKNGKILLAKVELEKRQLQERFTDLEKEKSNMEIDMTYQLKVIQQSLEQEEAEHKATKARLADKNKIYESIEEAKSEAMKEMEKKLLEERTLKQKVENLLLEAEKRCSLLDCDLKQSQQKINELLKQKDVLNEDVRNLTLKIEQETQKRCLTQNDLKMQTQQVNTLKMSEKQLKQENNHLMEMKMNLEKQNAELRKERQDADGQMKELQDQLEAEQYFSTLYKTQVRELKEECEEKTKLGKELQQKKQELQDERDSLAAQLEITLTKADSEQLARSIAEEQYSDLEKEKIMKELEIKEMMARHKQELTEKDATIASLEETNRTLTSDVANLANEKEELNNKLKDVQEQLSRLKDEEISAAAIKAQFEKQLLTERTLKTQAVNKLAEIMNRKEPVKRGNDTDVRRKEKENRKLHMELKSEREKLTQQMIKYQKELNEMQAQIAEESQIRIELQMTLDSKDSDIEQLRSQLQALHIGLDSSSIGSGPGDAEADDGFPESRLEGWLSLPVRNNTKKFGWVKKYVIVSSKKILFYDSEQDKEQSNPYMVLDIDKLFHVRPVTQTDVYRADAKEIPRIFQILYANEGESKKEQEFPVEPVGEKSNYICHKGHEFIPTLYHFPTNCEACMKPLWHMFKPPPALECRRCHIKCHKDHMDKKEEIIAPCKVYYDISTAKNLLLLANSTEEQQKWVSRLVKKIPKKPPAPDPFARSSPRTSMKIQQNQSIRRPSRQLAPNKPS

One may read the Kd as the constant that tells how readily two partners part at equilibrium. Consider `CC(=O)c1cnc2ccc(-c3cc(Cl)c(O)c(Cl)c3)nc2c1N[C@H]1CC[C@H](CN(C)C)CC1`, for which the Kd in experiment [1] was > 30 µM (inactive); in experiment [2], > 30 µM (inactive); in [3], 0.002 µM (active); in experiment [4], 0.311 µM (active); in [5] it was > 30 µM (inactive); in experiment [6] it was > 30 µM (inactive). Moreover, the Kd in [7] is > 30 µM (inactive); in [8] it was > 30 µM (inactive); in experiment [9], > 30 µM (inactive); in [10] it was 0.665 µM; in [11], > 30 µM (inactive); in [12] it was > 30 µM (inactive).

Take `C=CC(=O)N1CCC[C@H](n2c(=O)n(-c3ccc(Oc4ccccc4)cc3)c3c(N)ncnc32)C1`: the Kd in [1], in experiment [2], in [3], in [13], in experiment [4] and in experiment [6] was > 30 µM (inactive) throughout. In addition, the Kd in experiment [14], in [7], in experiment [8], in [9], in [10] and in experiment [11] was > 30 µM (inactive) in each case. Besides, the Kd in experiment [12] is > 30 µM (inactive).

In the case of `Cc1nc(NC(=O)N2CCC[C@H]2C(N)=O)sc1-c1ccnc(C(C)(C)C(F)(F)F)c1` [ALPELISIB], the Kd in experiment [1], in experiment [2], in experiment [3], in experiment [13], in [4] and in [5] was > 30 µM (inactive) each time. The Kd in experiment [6], in [14], in experiment [7], in experiment [8], in experiment [9] and in experiment [10] was > 30 µM (inactive) each time. The Kd in experiment [12] was > 30 µM (inactive).

`NC(=O)Nc1cc(-c2cccc(F)c2)sc1C(=O)N[C@H]1CCCNC1` [AZD-7762]: the Kd in [1], in [2], in experiment [3], in experiment [13], in experiment [4] and in experiment [5] was > 30 µM (inactive) throughout. The Kd in experiment [6] is > 30 µM (inactive); in [14], 0.899 µM (active); in [7], > 30 µM (inactive); in experiment [8] it was > 30 µM (inactive); in experiment [9], > 30 µM (inactive); in experiment [10] it was > 30 µM (inactive). Further, the Kd in [12] was > 30 µM (inactive).

For `CCn1cc(-c2ccnc3[nH]c(-c4cccc(CN(C)C)c4)cc23)c(-c2ccc(NC(=O)N(C)C)cc2)n1` [GSK-1070916], the Kd in experiment [1], in [2], in [13], in experiment [4], in experiment [6] and in [14] was > 30 µM (inactive) each time. Besides, the Kd in [7] is 2.4 µM (active); in [8], > 30 µM (inactive); in experiment [9], > 30 µM (inactive); in experiment [10] it was > 30 µM (inactive); in experiment [11], > 30 µM (inactive); in experiment [12], > 30 µM (inactive).

Turning to `CCOc1cc2ncc(C#N)c(Nc3ccc(F)c(Cl)c3)c2cc1NC(=O)/C=C/CN(C)C` [PELITINIB], the Kd in [1], in experiment [2], in [3], in experiment [13], in [4] and in experiment [5] was > 30 µM (inactive) throughout. Moreover, the Kd is > 30 µM (inactive) in experiment [6]; > 30 µM (inactive) in experiment [7]; > 30 µM (inactive) in experiment [8]; > 30 µM (inactive) in [9]; > 30 µM (inactive) in experiment [10]; 1.1 µM (active) in experiment [11]. Besides, the Kd in experiment [12] was > 30 µM (inactive).

For the molecule `CN1CCN(CCOc2cc(OC3CCOCC3)c3c(Nc4c(Cl)ccc5c4OCO5)ncnc3c2)CC1` [SARACATINIB], the Kd was > 30 µM (inactive) in experiment [2]; 0.029 µM in experiment [3]; > 30 µM (inactive) in experiment [13]; > 30 µM (inactive) in [4]; > 30 µM (inactive) in [5]; > 30 µM (inactive) in experiment [6]. Further, the Kd in experiment [7], in [8], in [9], in [10], in experiment [11] and in experiment [12] was > 30 µM (inactive) throughout.

With `CC(C)c1cc(CNc2nc(Nc3cc(C4CC4)[nH]n3)cc(N3CCN(C)CC3)n2)on1` [XL-228], the Kd in experiment [1], in experiment [2], in experiment [13], in experiment [4], in experiment [5] and in experiment [6] was > 30 µM (inactive) throughout. Further, the equilibrium dissociation constant (Kd) was 0.008 µM (active) in [14]; > 30 µM (inactive) in experiment [7]; > 30 µM (inactive) in experiment [8]; > 30 µM (inactive) in experiment [9]; > 30 µM (inactive) in [10]; 0.015 µM (active) in experiment [11]. Moreover, the Kd in [12] is > 30 µM (inactive).

As to `C[C@@H](N)c1ccc(C(=O)Nc2ccnc3[nH]ccc23)cc1` [Y-39983], the Kd in experiment [1], in [2], in experiment [3], in experiment [13], in experiment [4] and in [5] was > 30 µM (inactive) throughout. For the same molecule, the Kd in [6], in experiment [14], in experiment [8], in experiment [9], in [10] and in experiment [11] was > 30 µM (inactive) in each case. In experiment [12], the Kd is > 30 µM (inactive).
